Measurements as given in patent publication US20070219186A1, “Pyrazolo[1,5-A]pyrimidine derivatives and methods of use thereof” (priority 2006, published 2007).
pIC50: −log10 of the molar value. Read-outs that look alike come from different tables or passages of the source.

Molecular target: T1, human B-Raf (Homo sapiens, UniProt P15056)
T1 construct: Flag; GST; made in house; host or cells: Sf9 insect cells (B-Raf); E. coli (MEK1-GST)
Assay: B-Raf Kinase to MEK1 ELISA
Type: biochemical
Conditions: for inhibition at 10 µM: read-out: % Inhib./10 uM
In short: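 Flag/GST-tagged human B-Raf (Sf9, ~20 ng/point) phosphorylates non-active GST-MEK1 (50 nM final) with ATP and MgCl2 in MOPS pH 7.2 buffer, 60 min at RT. Product is captured on anti-GST plates; MEK1 pSer217/221 is read by phospho-antibody plus europium conjugate (DELFIA).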

[1] = median, cpd concentrations from 10 μM to 30 nM in half log dilutions, read-out: Median IC50

T1 sequence (P15056 whole entry): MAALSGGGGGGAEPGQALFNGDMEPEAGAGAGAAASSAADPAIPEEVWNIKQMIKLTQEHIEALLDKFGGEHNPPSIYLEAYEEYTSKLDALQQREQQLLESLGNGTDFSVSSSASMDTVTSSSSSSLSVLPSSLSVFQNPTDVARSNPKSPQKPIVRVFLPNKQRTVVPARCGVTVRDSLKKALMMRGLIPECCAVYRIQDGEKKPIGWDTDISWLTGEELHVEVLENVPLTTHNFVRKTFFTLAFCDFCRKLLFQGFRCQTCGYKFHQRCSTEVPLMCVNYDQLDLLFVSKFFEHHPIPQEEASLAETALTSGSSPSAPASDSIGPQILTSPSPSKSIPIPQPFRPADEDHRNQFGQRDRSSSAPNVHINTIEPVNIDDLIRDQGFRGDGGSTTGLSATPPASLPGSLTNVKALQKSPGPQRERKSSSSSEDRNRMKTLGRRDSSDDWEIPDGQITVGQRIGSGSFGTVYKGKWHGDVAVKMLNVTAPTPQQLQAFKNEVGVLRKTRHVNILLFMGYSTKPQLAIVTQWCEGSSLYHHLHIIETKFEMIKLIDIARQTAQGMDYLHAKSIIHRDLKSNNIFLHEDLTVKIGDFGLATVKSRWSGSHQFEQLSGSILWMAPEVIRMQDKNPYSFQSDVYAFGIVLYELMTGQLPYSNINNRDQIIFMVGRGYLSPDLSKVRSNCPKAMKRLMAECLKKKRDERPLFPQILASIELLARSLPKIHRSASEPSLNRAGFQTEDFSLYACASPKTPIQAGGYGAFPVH

| Compound | pIC50 [1] | inhibition at 10 µM [%] | pIC50 | % Inhib./10 uM (single point assay, 10 uM) [%] |
| --- | --- | --- | --- | --- |
| O=C(Nc1cccc(-c2ccnc3cc(N4CCNCC4)nn23)c1)c1cccc(C(F)(F)F)c1 [Example 208, N-[3-(2-piperazin-1-ylpyrazolo[1,5-a]pyrimidin-7-yl)phenyl]-3-(trifluoromethyl)benzamide] | – | – | 5.21 | 54 |
| CCOC(=O)c1cnn2c(-c3cccc(NC(=O)c4cnccn4)c3)ccnc12 [Example 214, ethyl7-{3-[(pyrazin-2-ylcarbonyl)amino]phenyl}pyrazolo[1,5-a]pyrimidine-3-carboxylate] | < 5.00 | 8 | – | – |
| CCOC(=O)c1cnn2c(-c3cccc(NC(=O)c4cccn4C)c3)ccnc12 [Example 215, ethyl7-(3-{[(1-methyl-1H-pyrrol-2-yl)carbonyl]amino}phenyl)pyrazolo[1,5-a]pyrimidine-3-carboxylate] | < 5.00 | 0 | – | – |
| CCOC(=O)c1cnn2c(-c3cccc(NC(=O)c4cnc(C)cn4)c3)ccnc12 [Example 216, Ethyl7-(3-{[(5-methylpyrazin-2-yl)carbonyl]amino}phenyl)pyrazolo[1,5-a]pyrimidine-3-carboxylate] | < 5.00 | 3 | – | – |
| CCOC(=O)c1cnn2c(-c3cccc(NC(=O)c4cc(Cl)ccn4)c3)ccnc12 [Example 217, ethyl7-(3-{[(4-chloropyridin-2-yl)carbonyl]amino}phenyl)pyrazolo[1,5-a]pyrimidine-3-carboxylate] | < 5.00 | 34 | – | – |
| CCOC(=O)c1cnn2c(-c3cccc(NC(=O)c4cc5ccccc5n4C)c3)ccnc12 [Example 219, ethyl 7-(3-{[(1-methyl-1H-indol-2-yl)carbonyl]amino}phenyl)pyrazolo[1,5-a]pyrimidine-3-carboxylate] | < 5.00 | 12 | – | – |
| CCOC(=O)c1cnn2c(-c3cccc(NC(=O)c4nn(-c5ccccc5)nc4C)c3)ccnc12 [Example 220, ethyl7-(3-{[(5-methyl-2-phenyl-2H-1,2,3-triazol-4-yl)carbonyl]amino}phenyl)pyrazolo[1,5-a]pyrimidine-3-carboxylate] | < 5.00 | 30 | – | – |
| CCOC(=O)c1cnn2c(-c3cccc(NC(=O)c4ccc(Cl)s4)c3)ccnc12 [Example 222, ethyl 7-(3-{[(5-chloro-2-thienyl)carbonyl]amino}phenyl)pyrazolo[1,5-a]pyrimidine-3-carboxylate] | < 5.00 | 43 | – | – |
| CCOC(=O)c1cnn2c(-c3cccc(NC(=O)c4ccc(Br)s4)c3)ccnc12 [Example 223, ethyl7-(3-{[(5-bromo-2-thienyl)carbonyl]amino}phenyl)pyrazolo[1,5-a]pyrimidine-3-carboxylate] | < 5.00 | 47 | – | – |
| CCOC(=O)c1cnn2c(-c3cccc(NC(=O)c4ccc(-c5cc(C(F)(F)F)nn5C)s4)c3)ccnc12 [Example 224, ethyl7-{3-[({5-[1-methyl-3-(trifluoromethyl)-1H-pyrazol-5-yl]-2-thienyl}carbonyl)amino]phenyl}pyrazolo[1,5-a]pyrimidine-3-carboxylate] | < 5.00 | 39 | – | – |
| CCOC(=O)c1cnn2c(-c3cccc(NC(=O)CC(C)(C)C)c3)ccnc12 [Example 225, ethyl7-{3-[(3,3-dimethylbutanoyl)amino]phenyl}pyrazolo[1,5-a]pyrimidine-3-carboxylate] | < 5.00 | 7 | – | – |
| CCOC(=O)c1cnn2c(-c3cccc(NC(=O)CC(C)CC(C)(C)C)c3)ccnc12 (stereo not shown) [Example 226, ethyl7-{3-[(3,5,5-trimethylhexanoyl)amino]phenyl}pyrazolo[1,5-a]pyrimidine-3-carboxylate] | < 5.00 | 43 | – | – |

Second part, led by results:

| pIC50 [1] | inhibition at 10 µM [%] | Compound | pIC50 | % Inhib./10 uM (single point assay, 10 uM) [%] |
| --- | --- | --- | --- | --- |
| 5.76 | 81 | CN(C)CC#Cc1cnn2c(-c3cccc(NC(=O)c4cccc(C(F)(F)F)c4)c3)ccnc12 [Example 205, N-(3-{3-[3-(dimethylamino)prop-1-yn-1-yl]pyrazolo[1,5-a]pyrimidin-7-yl}phenyl)-3-(trifluoromethyl)benzamide] | – | – |
| < 5.00 | 18 | CC(C)(C)OC(=O)N1CCN(c2cc3nccc(-c4cccc(NC(=O)c5cccc(C(F)(F)F)c5)c4)n3n2)CC1 [Example 206, tert-butyl 4-[7-(3-{[3-(trifluoromethyl)benzoyl]amino}phenyl)pyrazolo[1,5-a]pyrimidin-2-yl]piperazine-1-carboxylate] | – | – |
| < 5.00 | 0 | O=C(Nc1cccc(-c2ccnc3cc(N4CCN(Cc5ccccc5)CC4)nn23)c1)c1cccc(C(F)(F)F)c1 [Example 207, N-{3-[2-(4-benzylpiperazin-1-yl)pyrazolo[1,5-a]pyrimidin-7-yl]phenyl}-3-(trifluoromethyl)benzamide] | – | – |
| < 5.00 | 24 | CN(C)C1CCN(c2cc3nccc(-c4cccc(NC(=O)c5cccc(C(F)(F)F)c5)c4)n3n2)C1 (stereo not shown) [Example 209, N-(3-{2-[3-(dimethylamino)pyrrolidin-1-yl]pyrazolo[1,5-a]pyrimidin-7-yl}phenyl)-3-(trifluoromethyl)benzamide] | – | – |
| 5.60 | 52 | COC[C@H]1CCCN1c1cc2nccc(-c3cccc(NC(=O)c4cccc(C(F)(F)F)c4)c3)n2n1 [Example 210, N-(3-{2-[(2R)-2-(methoxymethyl)pyrrolidin-1-yl]pyrazolo[1,5-a]pyrimidin-7-yl}phenyl)-3-(trifluoromethyl)benzamide] | – | – |
| < 5.00 | 47 | O=C(Nc1cccc(-c2ccnc3cc(N4CCC[C@H]4CN4CCCC4)nn23)c1)c1cccc(C(F)(F)F)c1 [Example 211, N-(3-{2-[(2S)-2-(pyrrolidin-1-ylmethyl)pyrrolidin-1-yl]pyrazolo[1,5-a]pyrimidin-7-yl}phenyl)-3-(trifluoromethyl)benzamide] | – | – |
| < 5.00 | 22 | CC(C)(C)OC(=O)NC1CCN(c2cc3nccc(-c4cccc(NC(=O)c5cccc(C(F)(F)F)c5)c4)n3n2)C1 (stereo not shown) [Example 212, tert-butyl {1-[7-(3-{[3-(trifluoromethyl)benzoyl]amino}phenyl)pyrazolo[1,5-a]pyrimidin-2-yl]pyrrolidin-3-yl}carbamate] | – | – |
| < 5.00 | 40 | NC1CCN(c2cc3nccc(-c4cccc(NC(=O)c5cccc(C(F)(F)F)c5)c4)n3n2)C1 (stereo not shown) [Example 213, N-{3-[2-(3-aminopyrrolidin-1-yl)pyrazolo[1,5-a]pyrimidin-7-yl]phenyl}-3-(trifluoromethyl)benzamide] | – | – |
| 5.35 | 73 | CCOC(=O)c1cnn2c(-c3cccc(NC(=O)c4nccc5ccccc45)c3)ccnc12 [Example 218, ethyl7-{3-[(isoquinolin-1-ylcarbonyl)amino]phenyl}pyrazolo[1,5-a]pyrimidine-3-carboxylate] | – | – |
| 5.01 | 65 | CCOC(=O)c1cnn2c(-c3cccc(NC(=O)c4ccc(C)s4)c3)ccnc12 [Example 221, ethyl7-(3-{[(5-methyl-2-thienyl)carbonyl]amino}phenyl)pyrazolo[1,5-a]pyrimidine-3-carboxylate] | – | – |
| 5.80 | 54 | CCOC(=O)c1cnn2c(-c3cccc(NC(=O)c4cc(C(C)(C)C)cc(C(C)(C)C)c4)c3)ccnc12 [Example 227, ethyl7-{3-[(3,5-di-tert-butylbenzoyl)amino]phenyl}pyrazolo[1,5-a]pyrimidine-3-carboxylate] | – | – |
